For series [1] the following is noted: morphine 30 mg/kg orally twice per day.
Series [2] has as its system TH (tyrosine hydroxylase). The series can be described thus: CNS phosphoprotein profile, TH. The format is in vivo. Conditions: mice nucleus accumbens; Example 1 3 mg/kg at 30 or 60 minutes; haloperidol 2 mg/kg. The method, then:
A comprehensive molecular phosphorylation study is also carried out to examine the central nervous system (CNS) profile of the compound of Example 1. The extent of protein phosphorylation for selected key central nervous system proteins is measured in mice nucleus accumbens.
Mice were killed 30 minutes to 2 hours post-injection by focused microwave cranial irradiation, which preserves brain phosphoprotein as it exists at the time of death. Nucleus accumbens was then dissected from each mouse brain, sliced and frozen in liquid nitrogen. Samples were further prepared for phosphoprotein analysis via SDS-PAGE electrophoresis followed by phosphoprotein-specific immunoblotting, as described in Zhu H, et al., Brain Res. 2010 Jun. 25; 1342:11-23. Phosphorylation at each site was quantified, normalized to total levels of the protein (non-phosphorylated), and expressed as percent of the level of phosphorylation in vehicle-treated control mice.

In the case of `CN1CC[C@]23c4c5ccc(O)c4O[C@H]2[C@@H](O)C=C[C@H]3[C@H]1C5` [Morphine], the tolerance and dependence entry in series [1] was “clear signs of tolerance and dependence”.

Take `O=C(CCCN1CCC(O)(c2ccc(Cl)cc2)CC1)c1ccc(F)cc1` [haloperidol]: the “increase in TH phosphorylation at Ser40” value in series [2] is reported as “greater than 400%”.

Regarding `Cc1nc2n(c(=O)c1CCN1CCC(c3noc4cc(F)ccc34)CC1)CCCC2` [risperidone], in series [2], the “increase in TH phosphorylation at Ser40” value is on record as “greater than 500%”.

The values above are taken from patent US20220184072A1 (priority 2019, published 2022).
